From US11464802B2, “3-substituted piperidine compounds for Cbl-b inhibition, and use thereof” (Nurix Therapeutics, Inc., priority 2019, dated 2022)

Legend:
[1] = tested on: primary human total T-cells; assay: Primary human total T-cell activation: CD25 surface staining, Biological Example 13; assay type: cell-based; settings: 48 hours, fold change over baseline; for fold induction at 0.3 µM: inhibitor 0.3 μM; for fold induction at 0.3 µM / fold induction at 3 µM: Table 13-1; for fold induction at 1 µM: inhibitor 1 μM; for fold induction at 3 µM: inhibitor 3 μM
[2] = tested on: primary human total T-cells; assay: Primary human total T-cell activation: IL-2 secretion, Biological Example 9; assay type: cell-based; settings: 48 hours, fold change over baseline; for fold induction at 0.3 µM: inhibitor 0.3 μM; for fold induction at 0.3 µM / fold induction at 3 µM: Table 9-1; for fold induction at 1 µM: inhibitor 1 μM; for fold induction at 3 µM: inhibitor 3 μM
[3] = tested on: primary human total T-cells; assay: Primary human total T-cell activation: CD25 surface staining, Biological Example 9; assay type: cell-based; settings: 48 hours, fold change over baseline; for fold induction at 0.3 µM: inhibitor 0.3 μM; for fold induction at 0.3 µM / fold induction at 3 µM: Table 9-1; for fold induction at 1 µM: inhibitor 1 μM; for fold induction at 3 µM: inhibitor 3 μM
[4] = molecular target: T1, Cbl-b (Homo sapiens (Human), UniProt Q13191); assay: Cbl-b displacement assay (Cbl-b inhibition assay), Biological Example 8; assay type: binding; settings: Table 8-1
Method: (§1) Candidate compounds were evaluated for their ability to bind and inhibit Cbl-b, an E3 ubiquitin-protein ligase, as evidenced by their ability to displace a fluorophore-labeled probe bound to Cbl-b.
(§2) The ability of candidate compounds to displace a known inhibitor and thereby inhibit Cbl-b activity was measured by monitoring the interaction of Cbl-b with a fluorophore-labeled probe in the presence of the candidate compound. A truncated variant of Cbl-b (UniProt number Q13191) containing residues 36-427 and an Avitag at its N-terminus was co-expressed with BirA biotin ligase and purified using a standard protocol (see Dou et al., Nature Structural and Molecular Biology 8: 982-987, 2013; Avidity LLC).
(§3) Fluorescently-labeled inhibitor probe was synthesized and tagged with BODIPY FL. Cbl-b displacement assays were performed in a 384-well plate at room temperature in a 10 μl reaction volume by pre-incubating 0.5 nM Cbl-b or 0.125 nM Cbl-b (final concentration, indicated as “High” and “Low”, respectively) in an assay buffer containing 20 mM HEPES pH 7.5, 150 mM NaCl, 0.01% Triton X-100, 0.01% BSA and 0.5 mM TCEP in the presence of a candidate compound in 1% DMSO (final concentration) for 1 hour. After incubation in the presence of the candidate compound, the plate was incubated for an additional 1 hour in the presence of an approximate EC40 binding saturation consisting of 150 nM fluorescently-labeled inhibitor probe and 2 nM Streptavidin-Terbium (Cisbio) (final concentrations). Following the 1 hour incubation, the plates were read for TR-FRET signal at 520/620 nM using an Envision plate reader (Perkin Elmer).
(§4) The resulting data for the Cbl-b activity assays were analyzed using standard methods to determine the IC50 values for the tested compounds.

[5] = tested on: primary human total T-cells; assay: Primary human total T-cell activation: IL-2 secretion, Biological Example 13; assay type: cell-based; settings: 48 hours, fold change over baseline; for fold induction at 0.3 µM: inhibitor 0.3 μM; for fold induction at 0.3 µM / fold induction at 3 µM: Table 13-1; for fold induction at 1 µM: inhibitor 1 μM; for fold induction at 3 µM: inhibitor 3 μM
[6] = molecular target: T1, Cbl-b; assay: Cbl-b displacement assay (Cbl-b inhibition assay), Biological Example 12; assay type: binding; settings: Table 12-1
Method: as §1, §2, §3, §4

[7] = tested on: primary human total T-cells; assay: Primary human total T-cell activation: IL-2 secretion, Biological Example 2; assay type: cell-based; settings: 48 hours, fold change over baseline; for fold induction at 1 µM: inhibitor 1 μM
[8] = tested on: primary human total T-cells; assay: Primary human total T-cell activation: CD25 surface staining, Biological Example 2; assay type: cell-based; settings: 48 hours, fold change over baseline; for fold induction at 1 µM: inhibitor 1 μM
[9] = molecular target: T1, Cbl-b; assay: Cbl-b displacement assay (Cbl-b inhibition assay), TR-FRET probe displacement, Biological Example 1; assay type: binding
How it was run: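 N-terminally Avitagged, biotinylated truncated Cbl-b (0.5 nM "High" or 0.125 nM "Low", final) pre-incubated 1 h at room temperature with compound (1% DMSO) in HEPES pH 7.5 buffer. Then 150 nM BODIPY FL probe (~EC40) plus 2 nM streptavidin-terbium for 1 h; TR-FRET read at 520/620 nm.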

[10] = anti-CD3/anti-CD28 co-stimulation
[11] = anti-CD3/anti-CD28 co-stimulation, Table 13-1, read-out: CD25 staining CD3/CD28 1 μM
[12] = anti-CD3 alone, Table 13-1, read-out: CD25 staining CD3 1 μM
[13] = anti-CD3/anti-CD28 co-stimulation, Table 9-1, read-out: IL-2 secretion CD3/CD28 1 μM
[14] = anti-CD3 alone, Table 9-1, read-out: IL-2 secretion CD3 1 μM
[15] = anti-CD3/anti-CD28 co-stimulation, Table 9-1, read-out: CD25 staining CD3/CD28 1 μM
[16] = anti-CD3 alone, Table 9-1, read-out: CD25 staining CD3 1 μM
[17] = 0.125 nM Cbl-b final concentration (Low), read-out: Cbl-b IC50 (Low)
[18] = anti-CD3/anti-CD28 co-stimulation, Table 13-1, read-out: IL-2 secretion CD3/CD28 1 μM
[19] = anti-CD3 alone, Table 13-1, read-out: IL-2 secretion CD3 1 μM
[20] = anti-CD3/anti-CD28 co-stimulation, inhibitor 0.3 μM
[21] = 0.5 nM Cbl-b final concentration (High), read-out: Cbl-b IC50 (High)

T1 sequence (Q13191 36-427): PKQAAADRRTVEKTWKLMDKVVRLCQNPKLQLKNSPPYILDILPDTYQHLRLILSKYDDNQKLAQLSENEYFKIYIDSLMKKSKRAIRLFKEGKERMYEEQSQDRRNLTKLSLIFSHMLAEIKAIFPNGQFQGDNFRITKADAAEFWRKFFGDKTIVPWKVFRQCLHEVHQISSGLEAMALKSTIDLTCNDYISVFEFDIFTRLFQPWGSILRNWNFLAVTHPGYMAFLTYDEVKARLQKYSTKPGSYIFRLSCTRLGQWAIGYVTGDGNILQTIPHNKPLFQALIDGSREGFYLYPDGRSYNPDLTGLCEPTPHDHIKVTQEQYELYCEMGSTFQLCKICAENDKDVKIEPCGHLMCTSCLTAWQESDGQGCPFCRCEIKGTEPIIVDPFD

Row | IC50 [4, 17] [nM] | IC50 [6, 17] [nM] | SMILES | fold induction at 0.3 µM [1, 10] | fold induction at 1 µM [1, 11] | fold induction at 1 µM [1, 12] | fold induction at 3 µM ([1]; anti-CD3 alone) | fold induction at 0.3 µM [2, 10] | fold induction at 1 µM [2, 13] | fold induction at 1 µM [2, 14] | fold induction at 3 µM ([2]; anti-CD3 alone) | fold induction at 0.3 µM [3, 10] | fold induction at 1 µM [3, 15] | fold induction at 1 µM [3, 16] | fold induction at 3 µM ([3]; anti-CD3 alone) | fold induction at 0.3 µM [5, 10] | fold induction at 1 µM [5, 18] | fold induction at 1 µM [5, 19] | fold induction at 3 µM ([5]; anti-CD3 alone) | also measured
1 | 1 to 5 | 1 to 5 | C[C@@H](c1cc2c(c(C(F)(F)F)c1)CN(c1cccc(C3(Cc4nncn4C)COC3)c1)C2=O)N1CCC(F)CC1 [Compound 61] | > 1.39 | > 1.39 | > 1.14 | > 1.14 | > 15 | > 15 | 0.34 to 0.66 | 0.34 to 0.66 | > 1.39 | > 1.39 | > 1.14 | > 1.14 | > 15 | > 15 | 0.34 to 0.66 | 0.34 to 0.66 | 
2 |  |  | C[C@H]1CCCN(Cc2cc3c(c(C(F)(F)F)c2)CN(c2cccc(C4(Cc5nncn5C)COC4)c2)C3=O)C1 [Compound 1, (S)-2-(3-(3-((4-methyl-4H-1,2,4-triazol-3-yl)methyl)oxetan-3-yl)phenyl)-6-((3-methylpiperidin-1-yl)methyl)-4-(trifluoromethyl)isoindolin-1-one] | > 1.39 | > 1.39 | > 1.14 | > 1.14 | > 15 | > 15 | > 0.66 | > 0.66 | > 1.39 | > 1.39 | > 1.14 | > 1.14 | > 15 | > 15 | > 0.66 | > 0.66 | fold induction at 0.3 µM [7, 20]: > 15; fold induction at 1 µM ([7]; anti-CD3/anti-CD28 co-stimulation, read-out: IL-2 secretion CD3/CD28 1 μM): > 15; fold induction at 1 µM ([7]; anti-CD3 alone, read-out: IL-2 secretion CD3 1 μM): > 0.66; fold induction at 3 µM ([7]; anti-CD3 alone, inhibitor 3 μM): > 0.66; fold induction at 0.3 µM [8, 20]: < 1.24; fold induction at 1 µM ([8]; anti-CD3/anti-CD28 co-stimulation, read-out: CD25 staining CD3/CD28 1 μM): < 1.24; fold induction at 1 µM ([8]; anti-CD3 alone, read-out: CD25 staining CD3 1 μM): < 1.04; fold induction at 3 µM ([8]; anti-CD3 alone, inhibitor 3 μM): < 1.04; IC50 [4, 21]: < 1 nM; IC50 ([9]; 0.5 nM Cbl-b final concentration (High), read-out: Cbl-b activity IC50 (High)): < 1 nM; IC50 ([9]; Cbl-b concentration (High or Low) not given, read-out: IC50 values in the Cbl-b inhibition assay of Biological Example 1): < 1 nM; IC50 [6, 21]: < 1 nM
3 | > 5 | > 5 | Cn1cnnc1C(F)(F)[C@](C)(F)c1cccc(N2Cc3c(cc(CN4CCC(F)(F)C4)cc3C(F)(F)F)C2=O)c1 [Compound 58] | < 1.24 | 1.25 to 1.39 | < 1.04 |  | < 10 | < 10 | < 0.33 |  | < 1.24 | 1.25 to 1.39 | < 1.04 |  | < 10 | < 10 | < 0.33 |  | 
4 | 1 to 5 | 1 to 5 | Cn1cnnc1CC1(c2cccc(N3Cc4c(cc(CN5CCC6(CC6)C5)cc4C(F)(F)F)C3=O)c2)COC1 [Compound 59] | 1.25 to 1.39 | > 1.39 | > 1.14 | > 1.14 | > 15 | > 15 | < 0.33 | 0.34 to 0.66 | 1.25 to 1.39 | > 1.39 | > 1.14 | > 1.14 | > 15 | > 15 | < 0.33 | 0.34 to 0.66 | 
5 | 1 to 5 | 1 to 5 | C[C@@H](c1cc2c(c(C(F)(F)F)c1)CN(c1cccc(C3(Cc4nncn4C)COC3)c1)C2=O)N1CC[C@H](F)C1 [Compound 55] | > 1.39 | > 1.39 | > 1.14 | > 1.14 | > 15 | > 15 | 0.34 to 0.66 | 0.34 to 0.66 | > 1.39 | > 1.39 | > 1.14 | > 1.14 | > 15 | > 15 | 0.34 to 0.66 | 0.34 to 0.66 | 
6 | 1 to 5 | 1 to 5 | C[C@@H](c1cc2c(c(C(F)(F)F)c1)CN(c1cccc(C3([C@@H](F)c4nncn4C)COC3)c1)C2=O)N1CCC2(CC2)C1 [Compound 60] | > 1.39 | > 1.39 | > 1.14 | > 1.14 | > 15 | > 15 | 0.34 to 0.66 | 0.34 to 0.66 | > 1.39 | > 1.39 | > 1.14 | > 1.14 | > 15 | > 15 | 0.34 to 0.66 | 0.34 to 0.66 | 
7 | > 5 | > 5 | C[C@@H]1[C@@H](c2nncn2C)[C@H]1c1cccc(N2Cc3c(cccc3C(F)(F)F)C2=O)c1 [Compound 54] | 1.25 to 1.39 | 1.25 to 1.39 | > 1.14 |  | < 10 | < 10 | < 0.33 |  | 1.25 to 1.39 | 1.25 to 1.39 | > 1.14 |  | < 10 | < 10 | < 0.33 |  | 
8 | > 5 | > 5 | C[C@H](c1cc2c(c(C(F)(F)F)c1)CN(c1cccc(C3(Cc4nncn4C)COC3)c1)C2=O)N1CC[C@H](F)C1 [Compound 56] | 1.25 to 1.39 | > 1.39 | > 1.14 |  | 10 to 15 | 10 to 15 | < 0.33 |  | 1.25 to 1.39 | > 1.39 | > 1.14 |  | 11 to 15 | 11 to 15 | < 0.33 |  | 
